Article PMC12169847, “Targeted protein degradation by KLHDC2 ligands identified by high-throughput screening” (eLife, 2025)
pEC50: −log10 of the molar value. “And” between values parts separate entries of the source, which are not always exact repeats. Equal entries are not always repeated. Where two headings read alike, the source gives them in different places. Values belong to the molecule of their own block, whether it stands above or below them.

What was measured:
KEAP1 Kelch domain = molecular target: T1, KEAP1 Kelch domain (Homo sapiens, UniProt Q14145); experiment: Fluorescence polarization counter-screen, KEAP1 with TAMRA-NRF2 peptide; type: binding; conditions: for inhibitory effect in the KEAP1 counter-screening assay: concentrations less than 20 µM; for Fluorescence polarization signal: KEAP1, replicate wells
T1 construct: HIS6 (N); made in house; host or cells: Escherichia coli BL21(DE3)
T1 sequence (Q14145 321-609 limits assumed): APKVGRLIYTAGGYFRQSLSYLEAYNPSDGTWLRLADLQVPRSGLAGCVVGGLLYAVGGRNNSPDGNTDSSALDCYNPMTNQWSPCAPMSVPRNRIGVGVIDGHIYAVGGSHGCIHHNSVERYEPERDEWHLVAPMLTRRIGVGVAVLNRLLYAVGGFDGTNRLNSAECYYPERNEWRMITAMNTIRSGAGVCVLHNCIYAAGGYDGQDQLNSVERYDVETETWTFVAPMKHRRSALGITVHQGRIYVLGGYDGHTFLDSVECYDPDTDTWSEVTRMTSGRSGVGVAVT

BRD4 = BRD4 (Homo sapiens, UniProt O60885); experiment: Cell-based HiBiT BRD4 degradation assay in HEK293T; parameters: expressed in transfected cells; host or cells: HEK293T; conditions: for Relative BRD4 levels (HiBiT luminescence): replicate wells; for DC50: BRD4-HiBiT, HEK293T;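 as to all read-outs here: HEK293T cells transiently expressing HiBiT-tagged BRD4, exposed to serially diluted compounds, then lysed for a luminescence read-out that tracks the amount of cellular BRD4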

SMILES: O=C(O)c1cc(Cl)cc2c1NC(c1cccc(OC(F)(F)F)c1)C1C3CCC(C3)C21 (stereo not drawn) [compound 6]
Fluorescence polarization signal (KEAP1 Kelch domain; 0.169351 nM): 16 and 15 and 25
Fluorescence polarization signal (KEAP1 Kelch domain; 0.508053 nM): 18 and 23 and 21
Fluorescence polarization signal (KEAP1 Kelch domain; 1.52416 nM): 13 and 22 and 29
Fluorescence polarization signal (KEAP1 Kelch domain; 4.57247 nM): 22 and 15 and 21
Fluorescence polarization signal (KEAP1 Kelch domain; 13.7174 nM): 20 and 23 and 18
Fluorescence polarization signal (KEAP1 Kelch domain; 41.1523 nM): 29 and 24 and 17
Fluorescence polarization signal (KEAP1 Kelch domain; 123.457 nM): 18 and 24 and 30
Fluorescence polarization signal (KEAP1 Kelch domain; 370.37 nM): 25 and 12 and 20
Fluorescence polarization signal (KEAP1 Kelch domain; 1111.11 nM): 21 and 16 and 26
Fluorescence polarization signal (KEAP1 Kelch domain; 3333.33 nM): 15 and 23 and 32
Fluorescence polarization signal (KEAP1 Kelch domain; 10000 nM): 23 and 26 and 17
inhibitory effect in the KEAP1 counter-screening assay (KEAP1 Kelch domain): no inhibitory effect
pEC50 (KEAP1 Kelch domain; in figure): < 4.70

SMILES: COC(=O)c1cc(Cl)cc2c1NC(c1cccc(OCCOCCOCCNC(=O)CC3N=C(c4ccc(Cl)cc4)c4c(sc(C)c4C)-n4c(C)nnc43)c1)C1C3CCC(C3)C21 [compound 7, Methyl 2-chloro-6-(3-(2-(2-(2-(2-((S)-4-(4-chlorophenyl)–2,3,9-trimethyl-6H-thieno[3,2 f][1,2,4]triazolo[4,3 a][1,4]diazepin-6-yl)acetamido)ethoxy)ethoxy)ethoxy)phenyl)-5,6,6a,7,8,9,10,10a-octahydro-7,10-methanophenanthridine-4-carboxylate]
Relative BRD4 levels (HiBiT luminescence) (BRD4; 4 hr, 0.338702 nM): 1.014 and 0.8842 and 1.103
Relative BRD4 levels (HiBiT luminescence) (BRD4; 4 hr, 1.01611 nM): 0.9863 and 1.241 and 1.012
Relative BRD4 levels (HiBiT luminescence) (BRD4; 4 hr, 3.04832 nM): 0.8761 and 0.9572 and 0.9491
Relative BRD4 levels (HiBiT luminescence) (BRD4; 4 hr, 9.14495 nM): 0.9491 and 0.7788 and 0.8761
Relative BRD4 levels (HiBiT luminescence) (BRD4; 4 hr, 27.4348 nM): 0.9248 and 1.014 and 0.9978
Relative BRD4 levels (HiBiT luminescence) (BRD4; 4 hr, 82.3045 nM): 0.9816 and 0.9329 and 0.9248
Relative BRD4 levels (HiBiT luminescence) (BRD4; 4 hr, 246.914 nM): 0.9653 and 0.868 and 0.941
Relative BRD4 levels (HiBiT luminescence) (BRD4; 4 hr, 740.741 nM): 0.7544 and 0.7706 and 0.8518
Relative BRD4 levels (HiBiT luminescence) (BRD4; 4 hr, 2222.22 nM): 0.7382 and 0.5841 and 0.7139
Relative BRD4 levels (HiBiT luminescence) (BRD4; 4 hr, 6666.67 nM): 0.3732 and 0.3975 and 0.4462
Relative BRD4 levels (HiBiT luminescence) (BRD4; 4 hr, 20000 nM): 0.3569 and 0.3164 and 0.3326
Relative BRD4 levels (HiBiT luminescence) (BRD4; 24 hr, 0.338702 nM): 1.478 and 0.7263 and 0.7659
Relative BRD4 levels (HiBiT luminescence) (BRD4; 24 hr, 1.01611 nM): 0.6909 and 0.8141 and 0.7927
Relative BRD4 levels (HiBiT luminescence) (BRD4; 24 hr, 3.04832 nM): 0.6888 and 0.7059 and 0.7509
Relative BRD4 levels (HiBiT luminescence) (BRD4; 24 hr, 9.14495 nM): 0.6963 and 0.9298 and 0.7745
Relative BRD4 levels (HiBiT luminescence) (BRD4; 24 hr, 27.4348 nM): 0.7895 and 0.7691 and 1.0519
Relative BRD4 levels (HiBiT luminescence) (BRD4; 24 hr, 82.3045 nM): 0.858 and 0.8752 and 0.9459
Relative BRD4 levels (HiBiT luminescence) (BRD4; 24 hr, 246.914 nM): 0.8891 and 0.8666 and 0.9223
Relative BRD4 levels (HiBiT luminescence) (BRD4; 24 hr, 740.741 nM): 1.234 and 1.1783 and 1.43
Relative BRD4 levels (HiBiT luminescence) (BRD4; 24 hr, 2222.22 nM): 0.8473 and 0.8591 and 0.9544
Relative BRD4 levels (HiBiT luminescence) (BRD4; 24 hr, 6666.67 nM): 0.1778 and 0.1692 and 0.1789
Relative BRD4 levels (HiBiT luminescence) (BRD4; 24 hr, 20000 nM): 0.1875 and 0.1318 and 0.1307
DC50 (BRD4; 4 hr, read-out: DC50 (4 hr)): 2.6 µM and 2.63 µM
DC50 (BRD4; 24 hr, read-out: DC50 (24 hr)): 4 µM

Now from value to molecule:

inhibitory effect in the KEAP1 counter-screening assay (KEAP1 Kelch domain): did not have an inhibitory effect
SMILES: Cc1cc(NS(=O)(=O)c2ccc(Nc3nc(-c4c(C)nc5ccccn45)cs3)cc2)no1 [compound 3]

inhibitory effect in the KEAP1 counter-screening assay (KEAP1 Kelch domain): did not have an inhibitory effect
SMILES: Cc1ccn2c(-c3csc(Nc4ccc(S(=O)(=O)Nc5cc(C)on5)cc4)n3)c(C)nc2c1 [compound 4]

DC50 (BRD4; 4 hr, read-out: DC50 (4 hr)): > 20 µM
DC50 (BRD4; 24 hr, read-out: DC50 (24 hr)): > 20 µM
BRD4 degradation (BRD4; any concentration (<20 µM), 4 or 24 hr): did not promote BRD4 degradation
SMILES: COC(=O)c1cc(Cl)cc2c1NC(c1cccc(OCc3ccc(-c4ccc(NC(=O)C[C@@H]5N=C(c6ccc(Cl)cc6)c6c(sc(C)c6C)-n6c(C)nnc65)cc4)cc3)c1)C1C3CCC(C3)C21 (stereo partly drawn) [compound 9, Methyl 2-chloro-6-(3-((4'-(2-((S)-4-(4-chlorophenyl)-2,3,9-trimethyl-6H-thieno[3,2 f][1,2,4]triazolo[4,3 a][1,4]diazepin-6-yl)acetamido)-[1,1'-biphenyl]-4-yl)methoxy)phenyl)--5,6,6a,7,8,9,10,10a-octahydro-7,10-methanophenanthridine-4-carboxylate]
